The inhibition is the drop in the measured response relative to a control, in per cent.

The target of series [1] is human recombinant dopamine D3 receptor (Homo sapiens (Human), UniProt P35462). The series can be described thus: Test of binding inhibition for dopamine D3 receptor ([3H]-Methylspiperone SPA). The following applies: Jump-In HEK cell membranes, 2 nM [3H]-Methylspiperone, 120 min at 25° C.; read-out: hD3_Ki. The method, boiled down:
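SPA radioligand binding on Jump-In HEK membranes expressing human D3 receptor (4 µg/well) with 2 nM [3H]-methylspiperone (final), incubated 120 min at 25 °C. Non-specific binding defined with 10 µM butaclamol. Percent inhibition computed against total and non-specific binding; Ki from dose-response curves.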

Series [2] deals with human recombinant dopamine D2 receptor (Homo sapiens (Human), UniProt P14416). The series can be described thus: Test of binding inhibition for dopamine D2 receptor ([3H]-Methylspiperone SPA). The following applies: Jump-In HEK cell membranes, 1.2 nM [3H]-Methylspiperone, 120 min at 25° C.; read-out: hD2_Ki. In short, it runs like this:
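Scintillation proximity competition binding of [3H]-Methylspiperone to Jump-In HEK membranes expressing human D2 (2 μg protein/well) on WGA SPA beads (0.2 mg/well), 120 min at 25° C.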

The next series has as its target hERG channel (IKr) (Homo sapiens (Human), UniProt Q12809). The series can be described thus: hERG test (whole cell patch clamp, IKr). It is filed as cell-based. The following applies: human, CHO cells expressing hERG channel, pH 7.4, 3 μM, tail peak current. From the text:
Test Example 10: hERG Test
For the purpose of assessing risk of an electrocardiogram QT interval prolongation of the compound of the present invention, effects of the compound of the present invention on delayed rectifier K+ current (IKr), which plays an important role in the ventricular repolarization process, was studied using CHO cells expressing human ether-a-go-go related gene (hERG) channel.
After a cell was retained at a membrane potential of −80 mV by whole cell patch clamp method using an automated patch clamp system (QPatch; Sophion Bioscience A/S) and gave a leak potential of −50 mV, IKr induced by depolarization pulse stimulation at +20 mV for 2 seconds and, further, repolarization pulse stimulation at −50 mV for 2 seconds, was recorded. After the generated current was stabilized, extracellular solution (NaCl: 145 mmol/L, KCl: 4 mmol/L, CaCl2): 2 mmol/L, MgCl2: 1 mmol/L, glucose: 10 mmol/L, HEPES (4-(2-hydroxyethyl)-1-piperazineethanesulfonic acid): 10 mmol/L, pH=7.4), in which the compound of the present invention had been dissolved at an objective concentration in the extracellular solution, was applied to the cell at room temperature for 7 minutes or more. From the recording IKr, an absolute value of the tail peak current was measured based on the current value at the resting membrane potential using analysis software (QPatch Assay software; Sophion Bioscience A/S). Further, the % inhibition of tail peak current for the compound of the present invention relative to the tail peak current after application of the solution (0.1% dimethyl sulfoxide solution) was calculated to assess influence of the compound of the present invention on IKr.

Sequence of human recombinant dopamine D2 receptor (P14416 whole entry): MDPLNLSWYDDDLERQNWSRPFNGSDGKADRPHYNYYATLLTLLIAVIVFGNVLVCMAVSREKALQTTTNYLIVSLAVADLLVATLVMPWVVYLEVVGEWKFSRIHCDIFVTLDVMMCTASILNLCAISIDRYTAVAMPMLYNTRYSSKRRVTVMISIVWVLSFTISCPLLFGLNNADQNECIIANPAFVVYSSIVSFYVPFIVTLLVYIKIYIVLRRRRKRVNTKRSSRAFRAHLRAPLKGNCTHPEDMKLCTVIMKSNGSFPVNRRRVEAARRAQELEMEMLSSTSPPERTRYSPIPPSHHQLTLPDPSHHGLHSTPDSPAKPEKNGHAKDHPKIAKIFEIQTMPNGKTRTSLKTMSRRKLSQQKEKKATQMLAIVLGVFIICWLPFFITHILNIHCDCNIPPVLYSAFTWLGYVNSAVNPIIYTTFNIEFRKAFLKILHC
Sequence of hERG channel (IKr) (Q12809 whole entry): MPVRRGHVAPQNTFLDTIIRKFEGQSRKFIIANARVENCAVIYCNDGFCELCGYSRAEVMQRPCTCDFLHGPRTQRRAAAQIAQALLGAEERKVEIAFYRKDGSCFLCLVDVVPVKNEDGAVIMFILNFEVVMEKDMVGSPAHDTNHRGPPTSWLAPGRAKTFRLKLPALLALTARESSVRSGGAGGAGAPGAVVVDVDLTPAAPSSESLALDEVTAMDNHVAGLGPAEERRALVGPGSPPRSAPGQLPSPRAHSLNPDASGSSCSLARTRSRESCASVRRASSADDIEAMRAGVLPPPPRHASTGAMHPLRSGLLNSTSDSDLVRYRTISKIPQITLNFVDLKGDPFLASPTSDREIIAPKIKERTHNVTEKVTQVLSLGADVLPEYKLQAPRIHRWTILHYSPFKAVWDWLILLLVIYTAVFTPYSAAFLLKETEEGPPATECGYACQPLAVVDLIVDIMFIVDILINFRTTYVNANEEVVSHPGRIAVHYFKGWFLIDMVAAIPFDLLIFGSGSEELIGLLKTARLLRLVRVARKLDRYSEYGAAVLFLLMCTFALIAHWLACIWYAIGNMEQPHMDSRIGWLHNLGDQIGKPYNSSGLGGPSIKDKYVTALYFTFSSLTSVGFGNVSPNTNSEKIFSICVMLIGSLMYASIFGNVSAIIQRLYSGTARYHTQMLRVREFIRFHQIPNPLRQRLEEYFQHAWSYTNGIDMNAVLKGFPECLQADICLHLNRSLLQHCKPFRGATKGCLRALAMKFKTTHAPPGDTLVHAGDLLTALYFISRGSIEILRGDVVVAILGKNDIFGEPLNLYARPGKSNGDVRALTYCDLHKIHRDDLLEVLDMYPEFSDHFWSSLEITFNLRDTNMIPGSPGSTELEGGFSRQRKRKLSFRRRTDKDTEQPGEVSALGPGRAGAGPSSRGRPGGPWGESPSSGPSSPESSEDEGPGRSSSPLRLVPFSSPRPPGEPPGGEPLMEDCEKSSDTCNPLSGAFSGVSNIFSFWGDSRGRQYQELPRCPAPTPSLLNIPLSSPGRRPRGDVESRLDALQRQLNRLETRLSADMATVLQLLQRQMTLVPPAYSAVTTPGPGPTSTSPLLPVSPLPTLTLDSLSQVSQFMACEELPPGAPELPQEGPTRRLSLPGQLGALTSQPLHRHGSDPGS
Sequence of human recombinant dopamine D3 receptor (P35462 whole entry): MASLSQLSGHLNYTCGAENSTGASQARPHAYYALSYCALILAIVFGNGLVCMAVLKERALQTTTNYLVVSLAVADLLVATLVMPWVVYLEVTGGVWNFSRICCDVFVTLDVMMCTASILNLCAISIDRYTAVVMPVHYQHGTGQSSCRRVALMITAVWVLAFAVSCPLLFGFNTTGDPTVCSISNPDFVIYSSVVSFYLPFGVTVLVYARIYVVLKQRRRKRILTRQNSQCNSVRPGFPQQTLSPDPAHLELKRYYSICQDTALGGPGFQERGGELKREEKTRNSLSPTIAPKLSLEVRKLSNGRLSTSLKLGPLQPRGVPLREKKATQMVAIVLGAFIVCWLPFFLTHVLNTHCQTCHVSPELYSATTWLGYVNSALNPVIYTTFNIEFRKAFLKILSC

Turning to `Cn1c(C(=O)N[C@H]2CC[C@H](CCN3CCc4nc(OCC(C)(F)F)sc4CC3)CC2)cccc1=O` [Example I-056], the results for the Ki in series [1] and in series [2] were 0.24 nM and 490 nM, respectively. Also, 3 µM produced 10.7% inhibition at hERG channel (IKr).
As for `Cc1nnc(CC(=O)N[C@H]2CC[C@H](CCN3CCc4sc(C5CC(F)(F)C5)nc4C3)OC2)o1` [Example I-011], the Ki in series [1] worked out at 0.32 nM; in series [2] it was 950 nM. The molecule further registered an inhibition at 3 µM against hERG channel (IKr) of 10.6%.
`Cc1cnc(OCC(=O)N[C@H]2CC[C@H](CCN3CCc4sc(OCC(C)(F)F)nc4C3)CC2)cn1` [Example I-046]: the figures for the Ki in series [1] and in series [2] were 0.34 nM and 500 nM, respectively. For the same molecule, the inhibition at 3 µM against hERG channel (IKr) was found to be 14.3%.
Consider `Cc1nnc(CC(=O)N[C@H]2CC[C@](F)(CCN3CCc4ccc(OCC(F)F)nc4CC3)CC2)o1` [Example I-025], for which the Ki in series [1] came to 0.46 nM; in series [2], 820 nM. The molecule also registered an inhibition at 3 µM against hERG channel (IKr) of 14.9%.
On the same counts, the results for `Cc1nc(CC(=O)N[C@H]2CC[C@](F)(CCN3CCc4nc(OCC(F)F)sc4CC3)CC2)no1` [Example I-039] are 1 nM, 1200 nM and 22.3%.
On the same counts, the results for `Cc1cnc(CC(=O)N[C@H]2CC[C@](F)(CCN3CCc4ccc(OC5CCC5)nc4CC3)CC2)o1` [Example I-105] are 0.96 nM, over 2300 nM and 30.1%.
On the same counts, the results for `COC(CN1CCc2sc(OCC(C)(F)F)nc2C1)C1CC2(CC(NC(=O)c3cccc4nn(C)cc34)C2)C1` (single isomer, unassigned) [Example I-047] are 0.058 nM, 110 nM and 13.6%.
With `Cc1nnc(CC(=O)N[C@H]2CC[C@](F)(CCN3CCc4nc(OCC(F)F)sc4CC3)CC2)s1` [Example I-040], the Ki came to 0.46 nM in series [1] and 890 nM in series [2]. On hERG channel (IKr), the inhibition at 3 µM was determined as 23.2%.
With `Cc1ncc(OCC(=O)N[C@H]2CC[C@H](CCN3CCc4sc(C5CC(F)(F)C5)nc4C3)CC2)cn1` [Example I-069], the values for the Ki in series [1] and in series [2] were 0.49 nM and 670 nM, respectively. On hERG channel (IKr), this molecule gave an inhibition at 3 µM of 34.2%.
The matching figures for `C[C@@H](Oc1nc2c(s1)CCN(CC[C@H]1CC[C@H](NC(=O)c3cccc4nn(C)cc34)CC1)CC2)C(F)(F)F` [Example I-083]: 0.16 nM, over 2200 nM and 25.1%.
Regarding `Cc1nc(CC(=O)N[C@H]2CC[C@H](CCN3CCc4nc(OCC(C)(F)F)sc4CC3)OC2)no1` [Example I-008], the Ki in series [1] was 0.96 nM; in series [2] it was over 1900 nM. Moreover, testing at 3 µM at hERG channel (IKr) gave an inhibition of 20.8%.
On the same counts, the results for `Cn1cc(CC(=O)N[C@H]2CC[C@](F)(CCN3CCc4nc(OCC(F)F)sc4CC3)CC2)cn1` [Example I-059] are 0.69 nM, over 1700 nM and 6.72%.
The matching figures for `COC(CN1CCc2ccc(OCC(F)(F)F)nc2CC1)[C@H]1CC[C@H](NC(=O)Cc2cnc(C)o2)CC1` (single isomer, unassigned) [Example I-045]: 0.81 nM, 1700 nM and 18.3%.
The matching figures for `CC[C@@H](C)Oc1ccc2c(n1)CCN(CC[C@H]1CC[C@H](NC(=O)Cc3cnn(C)n3)CC1)CC2` [Example I-111]: 0.17 nM, 1600 nM and 14.6%.
For the molecule `Cn1cc(CC(=O)N[C@H]2CC[C@H](CCN3CCc4nc(OCCC(F)(F)F)sc4CC3)CC2)cn1` [Example I-101], the figures for the Ki in series [1] and in series [2] were 0.3 nM and 2200 nM, respectively. At hERG channel (IKr), this molecule came in with an inhibition at 3 µM of 34.9%.
On the same counts, the results for `Cc1cnc(CC(=O)N[C@H]2CC[C@H](CCN3CCc4nc(OCC(C)(F)F)sc4CC3)CC2)o1` [Example I-036] are 0.54 nM, 910 nM and 29.8%.

The values are drawn from patent US11578084B2, “Condensed ring compounds having dopamine D3 receptor antagonistic effect” (Shionogi & Co., Ltd., priority 2018, dated 2023).
